The experiment deals with thoracic aorta blood vessel plaque. The settings on record: high fat/high cholesterol fed rabbit; 5-ALA 80 mg/kg intraperitoneal 1.5 h before; substrate (carbamide peroxide) intravenously infused; irradiation once with 5 Gy; examined on the seventh day. The text has this: The New-Zealand rabbit model of blood vessel plaque is a common animal experimental model. […] The blood vessel plaque was taken as the target region and positioned, and a radiotherapy plan was made.

Each structure is given as a SMILES string.

For `NCC(=O)CCC(=O)O` [5-ALA], the “regression of thoracic aorta blood vessel plaque (CTA angiography and MR)” value is “completely disappeared”.
